According to patent US20240279241A1, “PYRIDO[4,3-D]PYRIMIDINE COMPOUNDS CAPABLE OF INHIBITING KRAS MUTANT PROTEINS” (Redx Pharma PLC, priority 2021, published 2024):

Legend:
Format in all cases: biochemical
KRAS G12A = target: T1, KRAS G12A (Homo sapiens, UniProt P01116, G12A); assay: HTRF nucleotide exchange assay (NEA), KRAS G12A
T1 construct: 4 nM KRAS; aa1-188 containing the G12V, G12C, G12A or G12S amino acid substitution
Protocol: (§1) The capacity of compounds to bind KRAS G12D, other KRAS mutants and wildtype RAS isoforms was quantified using a HTRF nucleotide exchange assay. Recombinant human RAS protein (2 nM; aa1-188 KRAS WT, HRAS WT, NRAS WT, or KRAS containing the containing the G12D, G13D or Q61H amino acid substitutions, or 4 nM KRAS; aa1-188 containing the G12V, G12C, G12A or G12S amino acid substitution, an N-terminal 6×His-tag and leader sequence), and 2 nM Europium-labeled anti-6×His antibody were mixed in assay buffer (10 mM HEPES pH7.3, 150 mM NaCl, 5 mM MgCl2, 0.05% BSA, 0.0025% NP-40 and 100 mM KF) with various concentrations of compound in a 384-well plate and a volume of 5 uL. After a 60-minute incubation at room temperature, 5 ul of 200 nM EDA-GTP-DY647P1 (diluted in assay buffer) was added to the plate. Following 30-minute incubation at room temperature, time-resolved fluorescence was measured on a PerkinElmer Envision plate reader. DMSO (0.3%) and unlabeled […] (1 μM) or equivalent tool compound were used to generate the Max and Min assay signals, respectively. Data was analysed using a four-parameter logistic model to calculate IC50 values, with at least two independent replicates were performed for each compound.

KRAS G12V = target: T2, KRAS G12V (Homo sapiens, UniProt P01116, G12V); assay: HTRF nucleotide exchange assay (NEA), KRAS G12V
T2 construct: 4 nM KRAS; aa1-188 containing the G12V, G12C, G12A or G12S amino acid substitution
T2 sequence (P01116 1-188 isoform P01116-2 G12V): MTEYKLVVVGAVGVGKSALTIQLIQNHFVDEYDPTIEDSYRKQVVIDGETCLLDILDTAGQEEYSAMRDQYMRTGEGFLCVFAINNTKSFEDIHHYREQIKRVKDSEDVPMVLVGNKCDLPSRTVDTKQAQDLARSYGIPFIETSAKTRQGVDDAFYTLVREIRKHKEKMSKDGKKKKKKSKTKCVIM
Protocol: as §1

KRAS G12S = target: T3, KRAS G12S (Homo sapiens, UniProt P01116, G12S); assay: HTRF nucleotide exchange assay (NEA), KRAS G12S
T3 construct: 4 nM KRAS; aa1-188 containing the G12V, G12C, G12A or G12S amino acid substitution
T3 sequence (P01116 1-188 isoform P01116-2 G12S): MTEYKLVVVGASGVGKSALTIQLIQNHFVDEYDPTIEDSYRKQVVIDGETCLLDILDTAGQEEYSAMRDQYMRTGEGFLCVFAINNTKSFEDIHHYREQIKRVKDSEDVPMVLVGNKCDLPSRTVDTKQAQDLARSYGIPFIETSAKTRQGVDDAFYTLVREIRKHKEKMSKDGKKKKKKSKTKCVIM
Protocol: as §1

KRAS G12D = target: T4, KRAS G12D (Homo sapiens, UniProt P01116, G12D); assay: HTRF nucleotide exchange assay (NEA), KRAS G12D; details: recombinant human KRAS G12D aa1-188, 2 nM; lowest class = % inhibition at 10 μM
T4 construct: Recombinant human RAS protein (2 nM)
T4 sequence (P01116 1-188 isoform P01116-2 G12D): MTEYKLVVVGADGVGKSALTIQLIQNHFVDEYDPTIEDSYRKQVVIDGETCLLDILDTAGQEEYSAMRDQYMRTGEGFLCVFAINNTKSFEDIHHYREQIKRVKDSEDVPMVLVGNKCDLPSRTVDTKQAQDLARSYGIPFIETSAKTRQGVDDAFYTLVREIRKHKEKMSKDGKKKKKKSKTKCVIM
In short: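 Compound binding to KRAS G12D was measured by HTRF nucleotide exchange. Recombinant human KRAS G12D (aa1-188, N-terminal 6×His-tag, 2 nM) and 2 nM Europium anti-6×His antibody were combined with compound in 5 uL assay buffer in 384-well plates for 60 minutes at room temperature, then 5 ul of 200 nM EDA-GTP-DY647P1 was added for 30 minutes before time-resolved fluorescence reading.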

KRAS G12C = target: T5, KRAS G12C (Homo sapiens, UniProt P01116, G12C); assay: HTRF nucleotide exchange assay (NEA), KRAS G12C
T5 construct: 4 nM KRAS; aa1-188 containing the G12V, G12C, G12A or G12S amino acid substitution
T5 sequence (P01116 1-188 isoform P01116-2 G12C): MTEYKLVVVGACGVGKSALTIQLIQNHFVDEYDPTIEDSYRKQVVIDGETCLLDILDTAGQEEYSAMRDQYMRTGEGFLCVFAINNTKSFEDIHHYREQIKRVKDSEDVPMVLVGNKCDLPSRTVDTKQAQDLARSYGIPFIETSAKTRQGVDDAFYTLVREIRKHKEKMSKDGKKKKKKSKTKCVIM
Protocol: as §1

KRAS WT = target: T6, KRAS WT (Homo sapiens, UniProt P01116); assay: HTRF nucleotide exchange assay (NEA), KRAS WT
T6 construct: Recombinant human RAS protein (2 nM); aa1-188 KRAS WT
T6 sequence (P01116 1-188 isoform P01116-2): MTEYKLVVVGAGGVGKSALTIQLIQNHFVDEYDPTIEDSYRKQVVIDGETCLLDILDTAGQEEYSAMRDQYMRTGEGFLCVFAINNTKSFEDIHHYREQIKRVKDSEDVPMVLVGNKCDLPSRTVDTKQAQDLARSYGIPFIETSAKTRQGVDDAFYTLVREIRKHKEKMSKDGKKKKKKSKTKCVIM
In short: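 Cmpd + His-KRAS(1-188) [WT, G13D 2 nM; G12C, G12S 4 nM] + Eu anti-6×His 2 nM, pH 7.3 HEPES/NaCl/MgCl2/KF buffer, 60 min RT. Add EDA-GTP-DY647P1 (200 nM soln), 30 min RT. HTRF read. DMSO = max signal; 4PL IC50.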

KRAS G13D = target: T7, KRAS G13D (Homo sapiens, UniProt P01116, G13D); assay: HTRF nucleotide exchange assay (NEA), KRAS G13D; details: recombinant human KRAS G13D aa1-188, 2 nM; lowest class = % inhibition at 10 μM
T7 construct: Recombinant human RAS protein (2 nM); aa1-188 KRAS WT
T7 sequence (P01116 1-188 isoform P01116-2 G13D): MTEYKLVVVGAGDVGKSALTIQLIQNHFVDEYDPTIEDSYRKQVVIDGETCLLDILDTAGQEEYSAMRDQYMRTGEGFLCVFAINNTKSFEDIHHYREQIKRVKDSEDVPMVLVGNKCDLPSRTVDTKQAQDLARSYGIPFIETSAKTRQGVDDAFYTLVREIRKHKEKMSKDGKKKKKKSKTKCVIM
Protocol: as §1

T1 sequence (P01116 1-188 isoform P01116-2 G12A): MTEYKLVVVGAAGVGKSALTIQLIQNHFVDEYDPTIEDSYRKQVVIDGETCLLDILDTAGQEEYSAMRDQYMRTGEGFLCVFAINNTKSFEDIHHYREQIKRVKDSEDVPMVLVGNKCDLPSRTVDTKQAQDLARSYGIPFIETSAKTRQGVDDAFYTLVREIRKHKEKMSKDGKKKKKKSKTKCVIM

IC50 (KRAS G12A) [nM]	IC50 (KRAS G12V) [nM]	IC50 (KRAS G12S) [nM]	IC50 (KRAS G12D) [nM]	IC50 (KRAS G12C) [nM]	IC50 (KRAS WT) [nM]	IC50 (KRAS G13D) [nM]	SMILES
≤ 10	≤ 10	≤ 10	≤ 10	≤ 10	≤ 10		C#Cc1c(F)ccc2cc(O)cc(-c3ncc4c(N5CCCNC(=O)C5)nc(OC[C@@]56CCCN5C[C@H](F)C6)nc4c3F)c12 (relative stereo) [Example 88, 4-[7-(8-ethynyl-7-fluoro-3-hydroxy-1-naphthyl)-8-fluoro-2-[[trans-2-fluoro-1,2,3,5,6,7-hexahydropyrrolizin-8-yl]methoxy]pyrido [4,3-d]pyrimidin-4-yl]-1,4-diazepan-2-one]
10 to 100	10 to 100	100 to 10000	10 to 100	10 to 100	10 to 100		CC1CN(c2nc(OCC34CCCN3CCC4)nc3c(F)c(-c4cc(O)cc5ccccc45)ncc23)CCCO1 (stereo not drawn) [Example 16, 4-[8-fluoro-2-(1,2,3,5,6,7-hexahydropyrrolizin-8-ylmethoxy)-4-(2-methyl-1,4-oxazepan-4-yl)pyrido[4,3-d]pyrimidin-7-yl]naphthalen-2-ol]
10 to 100	10 to 100	10 to 100	10 to 100	10 to 100	10 to 100		Oc1cc(-c2ncc3c(N4CCCCCC4)nc(OCC45CCCN4CCC5)nc3c2F)c2ccccc2c1 [Example 17, 4-[4-(azepan-1-yl)-8-fluoro-2-(1,2,3,5,6,7-hexahydropyrrolizin-8-ylmethoxy)pyrido[4,3-d]pyrimidin-7-yl]naphthalen-2-ol]
100 to 10000		100 to 10000	100 to 10000		100 to 10000	> 10000	O=S1(=O)CCN(c2nc(OCC34CCCN3CCC4)nc3c(F)c(-c4cc(O)cc5ccccc45)ncc23)CC1 [Example 22, 4-[4-(1,1-dioxo-1,4-thiazinan-4-yl)-8-fluoro-2-(1,2,3,5,6,7-hexahydropyrrolizin-8-ylmethoxy)pyrido[4,3-d]pyrimidin-7-yl]naphthalen-2-ol]
100 to 10000		100 to 10000	100 to 10000		100 to 10000	> 10000	COCC(C)CNc1nc(OCC23CCCN2CCC3)nc2c(F)c(-c3cc(O)cc4ccccc34)ncc12 (stereo not drawn) [Example 31, 4-[8-fluoro-2-(1,2,3,5,6,7-hexahydropyrrolizin-8-ylmethoxy)-4-[(3-methoxy-2-methyl-propyl)amino]pyrido [4,3-d]pyrimidin-7-yl]naphthalen-2-ol]
10 to 100	10 to 100	100 to 10000	10 to 100	10 to 100	10 to 100		Oc1cc(-c2ncc3c(N4CCC(O)CC4)nc(OCC45CCCN4CCC5)nc3c2F)c2ccccc2c1 [Example 41, 1-[8-fluoro-2-(1,2,3,5,6,7-hexahydropyrrolizin-8-ylmethoxy)-7-(3-hydroxy-1-naphthyl)pyrido[4,3-d]pyrimidin-4-yl]piperidin-4-ol]
	100 to 10000	100 to 10000	100 to 10000	100 to 10000	100 to 10000		COCC1(CNc2nc(OCC34CCCN3CCC4)nc3c(F)c(-c4cc(O)cc5ccccc45)ncc23)COC1 [Example 45, 4-[8-fluoro-2-(1,2,3,5,6,7-hexahydropyrrolizin-8-ylmethoxy)-4-[[3-(methoxymethyl)oxetan-3-yl]methylamino]pyrido [4,3-d]pyrimidin-7-yl]naphthalen-2-ol]
		100 to 10000	100 to 10000		100 to 10000		CS(=O)(=O)CCCNc1nc(OCC23CCCN2CCC3)nc2c(F)c(-c3cc(O)cc4ccccc34)ncc12 [Example 46, 4-[8-fluoro-2-(1,2,3,5,6,7-hexahydropyrrolizin-8-ylmethoxy)-4-(3-methylsulfonylpropylamino)pyrido[4,3-d]pyrimidin-7-yl]naphthalen-2-ol]
10 to 100	10 to 100	100 to 10000	100 to 10000	10 to 100	10 to 100		Oc1cc(-c2ncc3c(N4CC5CCC(C5)C4)nc(OCC45CCCN4CCC5)nc3c2F)c2ccccc2c1 [Example 47, 4-[4-(3-azabicyclo[3.2.1]octan-3-yl)-8-fluoro-2-(1,2,3,5,6,7-hexahydropyrrolizin-8-ylmethoxy)pyrido [4,3-d]pyrimidin-7-yl]naphthalen-2-ol]
10 to 100	10 to 100	100 to 10000	10 to 100	10 to 100	10 to 100		Oc1cc(-c2ncc3c(N4CCCC5(COC5)C4)nc(OCC45CCCN4CCC5)nc3c2F)c2ccccc2c1 [Example 52, 4-[8-fluoro-2-(1,2,3,5,6,7-hexahydropyrrolizin-8-ylmethoxy)-4-(2-oxa-8-azaspiro[3.5]nonan-8-yl)pyrido[4,3-d]pyrimidin-7-yl]naphthalen-2-ol]
100 to 10000	100 to 10000	100 to 10000	100 to 10000	100 to 10000	100 to 10000		O=S1(=O)CCN(c2nc(OCC34CCCN3CCC4)nc3c(F)c(-c4cc(O)cc5ccccc45)ncc23)CCN1 [Example 59, 4-[4-(1,1-dioxo-1,2,5-thiadiazepan-5-yl)-8-fluoro-2-(1,2,3,5,6,7-hexahydropyrrolizin-8-ylmethoxy)pyrido [4,3-d]pyrimidin-7-yl]naphthalen-2-ol]
10 to 100	10 to 100	100 to 10000	100 to 10000	10 to 100	100 to 10000		N#CC1CCN(c2nc(OCC34CCCN3CCC4)nc3c(F)c(-c4cc(O)cc5ccccc45)ncc23)CC1 [Example 65, 1-[8-fluoro-2-(1,2,3,5,6,7-hexahydropyrrolizin-8-ylmethoxy)-7-(3-hydroxy-1-naphthyl)pyrido[4,3-d]pyrimidin-4-yl]piperidine-4-carbonitrile]
10 to 100	10 to 100	100 to 10000	≤ 10	10 to 100	10 to 100		Oc1cc(-c2ncc3c(N4CCCC(O)CC4)nc(OCC45CCCN4CCC5)nc3c2F)c2ccccc2c1 (stereo not drawn) [Example 70, 1-[8-fluoro-2-(1,2,3,5,6,7-hexahydropyrrolizin-8-ylmethoxy)-7-(3-hydroxy-1-naphthyl)pyrido[4,3-d]pyrimidin-4-yl]azepan-4-ol]
	10 to 100		100 to 10000	100 to 10000	100 to 10000		O=C1NCc2ccc(Nc3nc(OCC45CCCN4CCC5)nc4c(F)c(-c5cc(O)cc6ccccc56)ncc34)cc21 [Example 82, 6-[[8-fluoro-2-(1,2,3,5,6,7-hexahydropyrrolizin-8-ylmethoxy)-7-(3-hydroxy-1-naphthyl)pyrido[4,3-d]pyrimidin-4-yl]amino]isoindolin-1-one]
10 to 100	10 to 100	100 to 10000	≤ 10	10 to 100	10 to 100		[O-][S+]1CCCN(c2nc(OCC34CCCN3CCC4)nc3c(F)c(-c4cc(O)cc5ccccc45)ncc23)CC1 (stereo not drawn) [Example 90, 4-[8-fluoro-2-(1,2,3,5,6,7-hexahydropyrrolizin-8-ylmethoxy)-4-(1-oxo-1,4-thiazepan-4-yl)pyrido[4,3-d]pyrimidin-7-yl]naphthalen-2-ol]
	100 to 10000		100 to 10000	100 to 10000	100 to 10000		Nc1cc2ccccc2c(-c2ncc3c(N4CCCOCC4)nc(OCC45CCCN4CCC5)nc3c2F)n1 [Example 91, 1-[8-fluoro-2-(1,2,3,5,6,7-hexahydropyrrolizin-8-ylmethoxy)-4-(1,4-oxazepan-4-yl)pyrido[4,3-d]pyrimidin-7-yl]isoquinolin-3-amine]
	10 to 100		10 to 100	10 to 100	10 to 100		CN(C)CC1(COc2nc(N3CCCOCC3)c3cnc(-c4cc(O)cc5ccccc45)c(F)c3n2)CC1 [Example 96, 4-[2-[[1-[(dimethylamino)methyl]cyclopropyl]methoxy]-8-fluoro-4-(1,4-oxazepan-4-yl)pyrido[4,3-d]pyrimidin-7-yl]naphthalen-2-ol]
